Source: paper PMC8026324, “In Vitro Antiplasmodial, Heme Polymerization, and Cytotoxicity of Hydroxyxanthone Derivatives” (Journal of Tropical Medicine, 2021)
≈ marks a conversion by molar mass, not a printed value.

Legend:
[1] = tested on: Hela; design: method as in earlier work; conditions: cited from earlier work
[2] = tested on: MCF-7; design: method as in earlier work; conditions: cited from earlier work
[3] = tested on: formation of β-hematin (heme polymerization); test: In vitro heme polymerization inhibitory activity (HPIA) assay; assay type: biochemical
Method: The heme polymerization inhibitory activity (HPIA) was conducted according to Basilico et al.'s modified method. The 100 μL of 1 mM hematin in 0.2 M NaOH was added into a microtube. […] Distilled water was used as a negative control. The 50 μL solution of glacial acetic acid (pH 2.6) was added into the microtube to initiate the polymerization reaction and incubated at a temperature of 37°C for 24 hours. Microtubes were centrifuged at 8000 rpm for 10 minutes and the supernatant was discarded and then washed three times using the 200 μL dimethyl sulfoxide (DMSO).Then, the deposition of the hematin crystal was dissolved with 200 μL of 0.1 M NaOH and 100 μL of solution was added into the 96-well microplate.
Absorbance was read using ELISA reader at λ 405 nm. A standard curve was made to illustrate the relationship between the concentration of hematin and its absorbance. The various concentrations of hematin (250; 125; 62.5; 31.25; 15.6; 7.8; and […]) were used to make the standard curve. The heme polymerization inhibition was expressed as IC50, which is the concentration of testing compounds that can inhibit 50% of the formation of β-hematin. The IC50 value was calculated by probit analysis using SPSS software (IBM Corp., Chicago).

[4] = tested on: Plasmodium falciparum 3D-7 (chloroquine-sensitive strain); test: In vitro antiplasmodial activity assay, microscopic method, strain 3D-7; assay type: cell-based
Method in brief: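 Sorbitol-synchronized ring-stage parasites at 1% parasitemia, 2% haematocrit in RPMI with 10% human O serum, exposed to compound dilutions in triplicate for 72 h at 37 °C. Parasitemia counted on Giemsa smears (≥1,000 erythrocytes); IC50 from growth inhibition by probit analysis.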

[5] = tested on: WIDR; design: method as in earlier work; conditions: cited from earlier work
[6] = tested on: Plasmodium falciparum 3D-7; test: Flow cytometry method (SYBR green I / CD235A-PE); assay type: cell-based; conditions: 72 hours incubation
Method: The Plasmodium falciparum strains of 3D-7 were used in this method. The plasmodium synchronized to obtain the ring stage by adding 5% of D-sorbitol. Plasmodium with 1% parasitemia was cultured in a 96-well microplate. The testing compounds were added in duplicate and incubated at 37°C for 72 hours. The samples were centrifuged with a speed of 1000 rpm for 10 minutes and washed twice in 100 μL of phosphate-buffered saline (PBS). Samples were incubated with 50 μL of 1 : 1000 SYBR green I and 20μL of CD235A-PE for 15 minutes at room temperature. Cells were washed and resuspended in PBS. Data were obtained using a FACSCalibur with the acquisition of 1,00,000 events per sample. Initial gating was done with uninfected and unstained erythrocytes to account for erythrocyte autofluorescence. The control plasmodium-infected erythrocyte was referred as 100% growth to calculate the percentage of growth inhibition after treated with testing compound.

## O=c1c2c(O)cccc2oc2cc(O)cc(O)c12 [HX1, 1,6,8-trihydroxyxanthone]
[1]
  cytotoxicity on Hela (in words): weak
[1]; in vitro cytotoxicity
  IC50 on Hela cell line: 67.7 µg/mL (≈ 277 µM)
[2]
  cytotoxicity on MCF-7 (in words): weak
[2]; in vitro cytotoxicity
  IC50 on MCF-7 cell line: 45 µg/mL (≈ 184 µM)
[3]; 24 hours, 37°C, glacial acetic acid pH 2.6
  IC50: 2850 µM
[3]; compound 1.269 mM
  Inhibition of β-hematin: 33.901%
  β-Hematin formed: 72.500 mM
[3]; compound 2.580 mM
  Inhibition of β-hematin: 49.149%
  β-Hematin formed: 55.776 mM
[3]; compound 5.119 mM
  Inhibition of β-hematin: 50.359%
  β-Hematin formed: 54.448 mM
[3]; compound 10.238 mM
  Inhibition of β-hematin: 86.893%
  β-Hematin formed: 14.376 mM
[3]; compound 20.475 mM
  Inhibition of β-hematin: 91.171%
  β-Hematin formed: 9.684 mM
[4]; Plasmodium falciparum, 6.39 μM, read-out: Growth inhibition of P. falciparum Strain 3D-7
  inhibition at 6.39 µM: 47.4 ± 5.86%
[4]; Plasmodium falciparum, 12.8 μM, read-out: Growth inhibition of P. falciparum Strain 3D-7
  inhibition at 12.8 µM: 61.5 ± 0.71%
[4]; Plasmodium falciparum, 25.59 μM, read-out: Growth inhibition of P. falciparum Strain 3D-7
  inhibition at 25.59 µM: 64.7 ± 0.861%
[4]; Plasmodium falciparum, 51.19 μM, read-out: Growth inhibition of P. falciparum Strain 3D-7
  inhibition at 51.19 µM: 69 ± 0.888%
[4]; Plasmodium falciparum, 102.38 μM, read-out: Growth inhibition of P. falciparum Strain 3D-7
  inhibition at 102.38 µM: 75.86 ± 0.471%
[4]; Plasmodium falciparum, 72 hours incubation, microscopic method, read-out: IC50 on P. falciparum 3D-7
  IC50: 6.1 ± 2.01 µM
[4]; category by IC50
  antiplasmodial activity category on P. falciparum 3D-7: good (good (IC50 1–20 μM))
[5]
  cytotoxicity on WIDR (in words): weak
[5]; in vitro cytotoxicity
  IC50 on WIDR cell line: 61.9 µg/mL (≈ 253 µM)
[6]; 102.38 μM
  inhibition activity of P. falciparum 3D-7 growth (flow cytometry): showed inhibition activity
[6]; Plasmodium falciparum, 204.75 μM, read-out: inhibition activity of P. falciparum 3D-7 growth (flow cytometry)
  inhibition at 204.75 µM: > 90%
